# Legend:
# [1] = humans; cited from earlier work
# [2] = Stability of Re complex in aqueous solution by ^1H NMR; assay type: physicochemical; details: D2O, pH 7
stability in aqueous solution (^1H NMR signals) [2],Compound,clearance as percent of that of ^131I-OIH [1]
–,"O=C([O-])CN=C([O-])CN=C([O-])CN=C([O-])C[S-].[O-2].[Tc+4] [^99mTc-MAG3, ^99mTc-mercaptoacetyltriglycine]",~ 60%
no change for weeks,Na[Re(CO)3(FEDA)] [Re-4],–

# — publication PMC5340577 (Nuclear medicine and biology, 2016)
